Earlier results, collected in PMC12051155 (Molecular Metabolism, 2025).

CCCCCCCCCCCCCCCC(=O)N[C@@H](CCC(=O)NCCCC[C@H](NC(=O)[C@H](C)NC(=O)[C@H](C)NC(=O)[C@H](CCC(N)=O)NC(=O)CNC(=O)[C@H](CCC(=O)O)NC(=O)[C@H](CC(C)C)NC(=O)[C@H](Cc1ccc(O)cc1)NC(=O)[C@H](CO)NC(=O)[C@H](CO)NC(=O)[C@@H](NC(=O)[C@H](CC(=O)O)NC(=O)[C@H](CO)NC(=O)[C@@H](NC(=O)[C@H](Cc1ccccc1)NC(=O)[C@@H](NC(=O)CNC(=O)[C@H](CCC(=O)O)NC(=O)[C@H](C)NC(=O)[C@@H](N)Cc1cnc[nH]1)[C@@H](C)O)[C@@H](C)O)C(C)C)C(=O)N[C@@H](CCC(=O)O)C(=O)N[C@@H](Cc1ccccc1)C(=O)N[C@H](C(=O)N[C@@H](C)C(=O)N[C@@H](Cc1c[nH]c2ccccc12)C(=O)N[C@@H](CC(C)C)C(=O)N[C@H](C(=O)N[C@@H](CCCNC(=N)N)C(=O)NCC(=O)N[C@@H](CCCNC(=N)N)C(=O)NCC(=O)O)C(C)C)[C@@H](C)CC)C(=O)O [liraglutide]
half-life in humans: 13 h
